Publication PMC5988692, “AZ304, a novel dual BRAF inhibitor, exerts anti-tumour effects in colorectal cancer independently of BRAF genetic status” (British Journal of Cancer, 2018)

Assays:
Format in all cases: cell-based, human
[1] = system: RKO, HT-29, DiFi and Caco-2 cells; assay: MTT assay with EGF stimulation; conditions: four CRC cell lines, AZ304 + EGF (20 ng/ml) vs AZ304 alone, 72 h
Method: The proliferation assays in selected colorectal cancer cell lines were measured using a 3-(4,5-dimethyl thiazol-2-yl)-2,5-diphenyl tetrazolium bromide (MTT) assay. First of all, cultured cells were seeded into 96-well plates (2000–5000 cells per well). After incubation for 24 h, the cells were pretreated with DMSO or AZ304 for 1 h. Then the indicated doses of Cetuximab were added. Cells were incubated for a further 48 or 72 h. For EGF stimulating assay, cells were incubated in reduced serum medium overnight and then treated with AZ304 or AZ304 + EGF (20 ng/ml) for 72 h. Twenty microliter of MTT solution (5 mg/ml) was added to each well followed by 4 h incubation at 37 °C. The cell culture medium was removed and the cells were lysed in 200 μl dimethylsulphoxide (DMSO) and the results were measured using a microplate reader (Model 550, Bio-Rad Laboratories, Hercules, CA, USA).
Fig. 5 Anti-proliferative activity of AZ304 cannot be retained by EGF in CRC cell lines with different BRAF mutation status. a Two V600E mutant BRAF cell lines (RKO, HT-29) and two wild type BRAF cell lines (DiFi, Caco-2) were serum starved overnight and then treated with the indicated AZ304 or AZ304 + EGF for 72 h. […]

MC-F7 cells = assay: Western blot p-ERK and p-p38; conditions: MC-F7 (BRAF/RAS WT)
Method: (§1) For western-blotting in A375, A549 and MC-F7 cell lines, the detailed method was described in ref.[18] […] For western-blot in selected CRC cell lines, the cells were collected after treatment for indicated time and washed twice with cold PBS. Then cells were lysed in 1% Triton lysis buffer (50 mmol/L Tris-HCl, pH 7.4, 10 mmol/L EDTA, 100 mmol/L NaF, 150 mmol/L NaCl, 1% Triton X-100, 1 mmol/L PMSF 1 mmol/L Na3VO4 and 2 μg/mL aprotinin). After sonication and centrifugation, samples were quantified with the Lowry method. Next, all the protein samples were boiled at 95 °C for 5 min with 3× sampling buffer. After that, all the lysate samples were resolved by SDS polyacrylamide gel electrophoresis (SDS-PAGE) and followed by western blotting which means electronically transferred to nitrocellulose membranes. After blocking with 5% skim milk in TBST buffer (10 mM Tris-HCl pH 7.4, 150 mM NaCl, 0.1% Tween 20) at room temperature for 1 h, the blots were incubated with indicated antibodies shaking for 2 h, then overnight at 4 °C. Then the blots were washed four times with TBST buffer, and then incubated with secondary antibodies for 30 min at room temperature. After washing for another four times, the protein bands were detected with enhanced chemiluminescence reagent (SuperSignal Western Pico Chemiluminescent Substrate; Pierce, Rockford, IL, USA) and visualised with the Electrophoresis Gel Imaging Analysis System (DNR Bio-Imaging Systems, Jerusalem, Israel).
(§2) Cells were incubated with DMSO or AZ304 for 75 min and p-ERK levels were determined using a p-ERK antibody based ELISA. […] Cells were incubated with DMSO or AZ304 (±EGF) for 75 min and p-ERK levels were determined using a p-ERK antibody based ELISA. […] (A375: BRAF V600E, A549: RAS MT; MC-F7: BRAF/RAS WT)

A549 cells = assay: Western blot p-ERK and p-p38
Method: as §1, §2

[2] = system: RKO, HT-29, DiFi and Caco-2 cells; assay: EdU incorporation assay; conditions: four CRC cell lines, 24 h
Method: Selected colorectal cancer cells were seeded into 96-well plates (2000–5000 cells per well). After incubation for 24 h, the cells were pretreated with DMSO or AZ304 for 24 h. Then 50 μM of 5-ethynyl-2′-deoxyuridine (EdU, Ribobio, Guangzhou, China) was added to each well and the cells were incubated at 37 °C for 2 h before being fixed with 4% formaldehyde for 30 min and incubated with 2 mg/ml glycine for 5 min. After being washed with PBS for five times, the cells were reacted with 100 μL of 1 × Apollo reaction cocktail for 30 min. Afterwards, the 1 × Hoechst 33342 (5 μg/mL) was used to stain the nuclei.
Two V600E mutant BRAF cell lines (RKO, HT-29) and two wild-type BRAF cell lines (DiFi, Caco-2) were treated with DMSO or increasing concentrations of AZ304 (0, 0.1, 1, 10, 100 μM), for 48 h (a) and 72 h (b). Viable cells were determined by MTT assay. c EdU incorporation assay. Four cells lines from (a) were treated with DMSO or indicated AZ304 for 24 h, followed by incubation with EdU and Hoechst in sequence. […] Expression levels of phosphorylation ERK were analysed by Western blot. e BRAF mutant cell line RKO, and BRAF wild type cell line Caco-2 were treated with DMSO or 2 uM AZ304 for the indicated times. Expression levels of phosphorylation ERK were analysed by Western blot. […] Cell viability was determined by MTT assay

A375 cells = assay: Western blot p-p38; conditions: A375 (BRAF V600E), 75 min
Method: as §1, with “After blocking with 5% skim milk in TBST buffer (10 mM Tris-HCl pH 7.4, 150 mM NaCl, 0.1% Tween 20) at room temperature for 1 h, the blots were incubated with indicated antibodies shaking for 2 h, then overnight at 4 °C. Then the blots were washed four times with TBST buffer, and then incubated with secondary antibodies for 30 min at room temperature.” left out
Cells were incubated with DMSO or AZ304 for 75 min and p-ERK levels were determined using a p-ERK antibody based ELISA. […] Cells were incubated with DMSO or AZ304 (±EGF) for 75 min and p-ERK levels were determined using a p-ERK antibody based ELISA. […]

For `COc1ccc2c(Nc3cc(NC(=O)c4cccc(C(C)(C)C#N)c4)ccc3C)ncnc2c1` [AZ304], the “change of anti-proliferative effects after combined treatment with EGF” value [1] was “no significant reduction of anti-proliferative effects”, the “effect on p-p38” value (MC-F7 cells; 75 min) was “potently inhibited p-p38” and the “effect on p-ERK” value (MC-F7 cells; 75 min, 0.1, 1, 10 and 100 fold of A375 p-ERK EC50) was “concentration dependent reduction of p-ERK”. For the same compound, the “effect on p-p38” value (A549 cells; A549 (RAS MT), 75 min) was “potently inhibited p-p38”, the “effect on p-ERK” value (A549 cells; A549 (wild type BRAF, RAS MT), 75 min, 0.1, 1, 10 and 100 fold of A375 p-ERK EC50) was “concentration dependent reduction of p-ERK” and the “DNA replication (EdU-positive cells)” value [2] was “suppressed DNA replication in CRC cells at all concentrations”. The “effect on p-p38” value (A375 cells) was “potently inhibited p-p38”.
